Experimental data taken from ChEMBL document CHEMBL1154345, “Discovery of tricyclic 5,6-dihydro-1H-pyridin-2-ones as novel, potent, and orally bioavailable inhibitors of HCV NS5B polymerase” (Bioorg Med Chem Lett, 2009).

Assays:
in vitro [1] = settings: human, t1/2
Hepatitis C virus [2] = assay: microbe, parasite or virus in culture; type: functional, organism-based, Hepacivirus hominis, subtype 1a, Huh-lunet; settings: Hepatitis C virus, subtype 1a, Huh-lunet, 96 h
Description: Antiviral activity against HCV-1a infected in human Huh-lunet cells after 4 days by luciferase based replicon assay

in vitro [3] = settings: human
Description: Metabolic stability in human liver microsomes assessed as compound remaining after 60 mins at 1 uM

Hepatitis C virus [4] = assay: microbe, parasite or virus in culture; type: functional, organism-based, Hepacivirus hominis, genotype 1b, Huh-luc/neo-ET; settings: Hepatitis C virus, genotype 1b, Huh-luc/neo-ET, 72 h
Description: Antiviral activity against HCV-1b infected human Huh-luc/neo-ET replicon cells after 72 hrs by luciferase based replicon assay

Row | half-life at 1 µM (in vitro [1]; liver microsomes) [h] | EC50 (Hepatitis C virus [2]) [nM] | remaining at 1 h, 1 µM (in vitro [3]; liver microsomes) [%] | EC50 (Hepatitis C virus [4]) [nM] | half-life at 1 µM (in vitro [1]; microsomes) [h] | remaining at 1 h, 1 µM (in vitro [3]; microsomes) [%] | SMILES
1 | > 1 | 23 | 81 | 2 | – | – | CS(=O)(=O)Nc1ccc2c(c1)S(=O)(=O)N=C(C1=C(O)[C@@H]3C4CCC(CC4)[C@@H]3N(Cc3ccc(F)c(F)c3)C1=O)N2
2 | > 1 | 25 | 100 | 1 | – | – | CS(=O)(=O)Nc1ccc2c(c1)S(=O)(=O)N=C(C1=C(O)[C@@H]3C4CCC(CC4)[C@@H]3N(Cc3ccc(F)cc3Cl)C1=O)N2
3 | > 1 | 270 | 50 | 5 | – | – | COc1cccc(CN2C(=O)C(C3=NS(=O)(=O)c4cc(NS(C)(=O)=O)ccc4N3)=C(O)[C@@H]3C4CCC(CC4)[C@@H]32)c1
4 | > 1 | 200 | 100 | 4 | – | – | CS(=O)(=O)Nc1ccc2c(c1)S(=O)(=O)N=C(C1=C(O)[C@@H]3[C@@H]4CC[C@@H](C4)[C@@H]3N(Cc3ccc(F)c(Cl)c3)C1=O)N2
5 | > 1 | 87 | 65 | 9 | – | – | Cc1cc(CN2C(=O)C(C3=Nc4ccc(NS(C)(=O)=O)cc4S(=O)(=O)N3)=C(O)[C@@H]3[C@@H]4CC[C@@H](C4)[C@@H]32)ccc1F
6 | > 1 | 340 | 90 | 10 | – | – | CS(=O)(=O)Nc1ccc2c(c1)S(=O)(=O)NC(C1=C(O)[C@@H]3[C@@H]4CC[C@@H](C4)[C@@H]3N(Cc3ccccc3)C1=O)=N2
7 | > 1 | 32 | 87 | 10 | – | – | CS(=O)(=O)Nc1ccc2c(c1)S(=O)(=O)N=C(C1=C(O)[C@@H]3[C@H]4CC[C@H](C4)[C@@H]3N(Cc3ccc(F)c(Cl)c3)C1=O)N2
8 | – | 55 | – | 11 | 0.833 | – | CS(=O)(=O)Nc1ccc2c(c1)S(=O)(=O)N=C(C1=C(O)[C@@H]3C4CCC(CC4)[C@@H]3N(CC3CCCCC3)C1=O)N2
9 | – | 820 | – | 27 | > 1 | 63 | CS(=O)(=O)Nc1ccc2c(c1)S(=O)(=O)N=C(C1=C(O)[C@@H]3[C@@H]4CC[C@@H](C4)[C@@H]3N(Cc3cccs3)C1=O)N2

The next lines start with the compound.

Row | SMILES | half-life at 1 µM (in vitro [1]; liver microsomes) [h] | EC50 (Hepatitis C virus [2]) [nM] | remaining at 1 h, 1 µM (in vitro [3]; liver microsomes) [%] | EC50 (Hepatitis C virus [4]) [nM] | half-life at 1 µM (in vitro [1]; microsomes) [h] | remaining at 1 h, 1 µM (in vitro [3]; microsomes) [%]
10 | COc1cc(CN2C(=O)C(C3=NS(=O)(=O)c4cc(NS(C)(=O)=O)ccc4N3)=C(O)[C@@H]3C4CCC(CC4)[C@@H]32)ccc1F | > 1 | 21 | 67 | 2 | – | –
11 | CS(=O)(=O)Nc1ccc2c(c1)S(=O)(=O)N=C(C1=C(O)[C@@H]3C4CCC(CC4)[C@@H]3N(Cc3ccc(F)c(Cl)c3)C1=O)N2 | > 1 | 19 | 100 | 2 | – | –
12 | CS(=O)(=O)Nc1ccc2c(c1)S(=O)(=O)N=C(C1=C(O)[C@@H]3C4CCC(CC4)[C@@H]3N(Cc3ccc(F)cc3F)C1=O)N2 | > 1 | 280 | 100 | 2 | – | –
13 | Cc1cc(CN2C(=O)C(C3=NS(=O)(=O)c4cc(NS(C)(=O)=O)ccc4N3)=C(O)[C@@H]3C4CCC(CC4)[C@@H]32)ccc1F | > 1 | 16 | 81 | 2 | – | –
14 | CS(=O)(=O)Nc1ccc2c(c1)S(=O)(=O)N=C(C1=C(O)[C@@H]3C4CCC(CC4)[C@@H]3N(Cc3ccccc3Cl)C1=O)N2 | > 1 | 660 | 100 | 17 | – | –
15 | CS(=O)(=O)Nc1ccc2c(c1)S(=O)(=O)N=C(C1=C(O)[C@@H]3C4CCC(CC4)[C@@H]3N(Cc3cccc(F)c3)C1=O)N2 | – | 98 | – | 4 | > 1 | 88
16 | CS(=O)(=O)Nc1ccc2c(c1)S(=O)(=O)N=C(C1=C(O)[C@@H]3C4CCC(CC4)[C@@H]3N(Cc3ccc(Cl)cc3)C1=O)N2 | > 1 | 250 | 100 | 31 | – | –
17 | CS(=O)(=O)Nc1ccc2c(c1)S(=O)(=O)NC(C1=C(O)[C@@H]3[C@@H]4CC[C@@H](C4)[C@@H]3N(Cc3ccc(F)c(F)c3)C1=O)=N2 | > 1 | 110 | 97 | 13 | – | –
18 | CS(=O)(=O)Nc1ccc2c(c1)S(=O)(=O)NC(C1=C(O)[C@@H]3[C@@H]4CC[C@@H](C4)[C@@H]3N(Cc3cccc(F)c3)C1=O)=N2 | – | 290 | – | 22 | > 1 | 96
19 | CS(=O)(=O)Nc1ccc2c(c1)S(=O)(=O)N=C(C1=C(O)[C@@H]3[C@H]4CC[C@H](C4)[C@@H]3N(Cc3ccc(F)c(F)c3F)C1=O)N2 | > 1 | 260 | 100 | 15 | – | –
20 | COc1cc(CN2C(=O)C(C3=NS(=O)(=O)c4cc(NS(C)(=O)=O)ccc4N3)=C(O)[C@@H]3[C@H]4CC[C@H](C4)[C@@H]32)ccc1F | – | 46 | – | 10 | > 1 | 66
21 | CS(=O)(=O)Nc1ccc2c(c1)S(=O)(=O)N=C(C1=C(O)[C@@H]3[C@H]4CC[C@H](C4)[C@@H]3N(Cc3ccc(F)cc3F)C1=O)N2 | – | 290 | – | 10 | > 1 | 100
22 | CS(=O)(=O)Nc1ccc2c(c1)S(=O)(=O)N=C(C1=C(O)[C@@H]3[C@H]4CC[C@H](C4)[C@@H]3N(Cc3ccc(F)cc3Cl)C1=O)N2 | – | 33 | – | 5 | > 1 | 98
23 | CS(=O)(=O)Nc1ccc2c(c1)S(=O)(=O)N=C(C1=C(O)[C@@H]3[C@H]4CC[C@H](C4)[C@@H]3N(Cc3cccc(F)c3)C1=O)N2 | – | 330 | – | 10 | > 1 | 85
24 | CS(=O)(=O)Nc1ccc2c(c1)S(=O)(=O)N=C(C1=C(O)[C@@H]3[C@H]4CC[C@H](C4)[C@@H]3N(Cc3ccc(Cl)cc3)C1=O)N2 | – | 760 | – | 203 | > 1 | 84
25 | CS(=O)(=O)Nc1ccc2c(c1)S(=O)(=O)N=C(C1=C(O)[C@@H]3C4CCC(CC4)[C@@H]3N(CC(F)(F)F)C1=O)N2 | – | 60 | – | 4 | 0.1 | –
26 | CS(=O)(=O)Nc1ccc2c(c1)S(=O)(=O)N=C(C1=C(O)[C@@H]3C4CCC(CC4)[C@@H]3N(Cc3cccs3)C1=O)N2 | 0.85 | 120 | – | 6 | – | –
27 | CS(=O)(=O)Nc1ccc2c(c1)S(=O)(=O)N=C(C1=C(O)[C@@H]3[C@H]4CC[C@H](C4)[C@@H]3N(Cc3cccs3)C1=O)N2 | – | 66 | – | 18 | > 1 | 81
28 | CS(=O)(=O)Nc1ccc2c(c1)S(=O)(=O)N=C(C1=C(O)[C@@H]3C4CCC(CC4)[C@@H]3N(Cc3ccccc3)C1=O)N2 | > 1 | 55 | 82 | 1 | – | –
